In patent US8841269B2, “Polynucleotides for use in treating and diagnosing cancers” (Creighton University, priority 2010, dated 2014):
“Also recorded” adds a separate entry of the source.

Columns and labels:
ER-α = assay: Immunoblot of ER-α after transfection in MCF7; type: cell-based, human; settings: MCF7, mimics 60 nmol/L
Excerpt: (§1) Immunoblot analysis. For Western blot in FFPE tissues, an established method was followed (Addis et al., 2009, Proteomics 9:3815-23). For MCF7 cell line, let-7 mimics and negative control miRNA (60 nmol/L), or let-7 inhibitors and anti-miR negative control (60 nmol/L) were transfected following the protocol of siPORT NeoFX Transfection Agent (Applied Biosystems), The Western blot procedure was described before (Zhang et al., 2010, J Proteome Res., 9(2):980-989). Antibody information is as follows: ER-α, RB-9016-P1, Thermoscientific; Cyclin D1, sc-8396, Santa Cruz; pS2, ab80782 was Abeam; β-Actin, sc-69879, Santa Cruz.

cyclin D1 = assay: Immunoblot of cyclin D1 after transfection in MCF7; type: cell-based, human; settings: MCF7, mimics; for expression of cyclin D1 (protein): after 2 days; for protein expression of cyclin D1: after 6 days
Excerpt: as §1

ERK1/2 = assay: Estrogen induced ERK1/2 activation (phos-ERK Western blot) in MDA-MB-231; type: cell-based, human; settings: MDA-MB-231, 10 nmol/L E2 after estrogen starvation
Experimental: After mixed with gel-loading buffer and boiled for 5 minutes, the protein samples were separated with 10% SDS-PAGE and transferred to a PVDF membrane (Millipore, Billerica, Mass.). The blots were probed with specific first antibodies and appropriate second antibodies. The blots were visualized with enhanced chemiluminescence (ECL) reagents (Pierce, Minneapolis, Minn.) and documented with a Fluor Chem FC2 (Alpha Innotech, Santa Clara, Calif.) image system. Gel density was quantified with Quantity One and expressed as a relative value against β-actin. The anti-ERK1/2 (#9102) and antipERK1/2 (#9106) were purchased from Cell Signaling Technology (Danvers, Mass.). Anti-ER-α66 (RB-9016) was obtained from Thermoscientific (Rockford, Ill.). Anti-ER-α36 antibody was an affinity-purified rabbit polyclonal anti-ER-36 antibody generated as a custom service from Pacific Immunology Corp (Ramona, Calif.). The ER-α36 antibody was raised against a synthetic peptide antigen corresponding to the unique C-terminal 20 aa of ER-α36.
ER-α36 is mainly localized on the plasma membrane and mediates the non-genomic estrogen pathways (Wang et al., 2005, Biochem. Biophys. Res. Commun. 336:1023-7, Wang et al., 2006, Proc. Natl. Acad. Sci. U.S.A., 103:9063-8). We reasoned that the inhibition on ER-α36 expression by let-7 family miRNAs might dampen the non-genomic estrogen pathway. […]

[1] = system: ER-α negative MDA-MB-231 cell line; assay: MTT cell proliferation assay in MDA-MB-231; type: cell-based, human; settings: MDA-MB-231, DMEM with 10% FBS
Experimental: FIG. 10. The effects of let-7a, let-7b, and let-7i miRNAs on cell proliferation in ER-α negative MDA-MB-231 cell line. Cancer cell proliferation was monitored by MTT assays in the same way as in MCF7 cell line except MDA-MB-231 cells were grown in DMEM with 10% FBS.
MTT cell proliferation assay. MCF7 cells were transfected with let-7 mimics or negative controls (60 nmol/L) in normal growth medium for 1 day, or in medium with 2.5% charcoal-stripped FBS for 2 days to exhaust endogenous estrogen, following the protocol of siPORT NeoFX Transfection Agent (Applied Biosystems). For the experiment in normal growth medium, 10^4 cells in the volume of 100 μL were seeded in a 96-well plate for 12 hours and assay lasted for another 4 days. For experiments in E2 free medium, 1.5 10^4 cells were seeded in a 96-well plate for 12 hours and then exposed to 10 nmol/L E2, or not, for up to 4 days. For both experiments, each treatment had 12 replicates on the plate. The cells were then incubated in 0.83 mg/mL 3-[4,5-dimethylthiazol-2-yl]-2,5-diphenyltetrazolium bromide (MTT) in growth medium at 37° C. for 4 h and lysed in 100 μL of DMSO at room temperature for 15 min. The absorbance in each well was measured at 490 nm by an ELx800 Absorbance Microplate Reader (Biotek). Cell proliferation was normalized to day 0.

ER-α36 = assay: Immunoblot of ER-α36 after transfection; type: cell-based, human; settings: MDA-MB-231, two days post transfection of mimics
Experimental: Let-7 miRNA or negative control #1 miRNA of 60 nmol/L (Ambion, Austin, Tex.) was transfected into cells with the siPORT NeoFX reagent (Ambion, Austin, Tex.) following the manufacturer's protocol.
Cells were lysed with NP40 cell lysis buffer (250 mM NaCl, 50 mM Tris-HCl, pH 7.4, 5 mM EDTA, 50 mM NaF, 1 mM Na3VO4, 1% Nonidet P40, 1 mM PMSF, proteinase and phosphoproteinase inhibitor cocktails). The protein was also extracted from FFPE sections. FFPE sections (50 μm thick) were transferred into a microcentrifuge tube and treated with xylene, followed by vortexing vigorously for 10 seconds. After centrifugation and removal of supernatant, the sections were washed with xylene two more times, followed by one more wash with 1 mL of 100% ethanol. The resultant pellets were vacuum dried, then resuspended in 300 μL of 20 mM Tris-HCl (pH 8.0) and 2% SDS and homogenized. The samples were then boiled at 100° C. for 20 minutes and incubated at 60° C. for 1 hour. After centrifugation at 10,000 g for 15 min at 4° C., the supernatant protein was saved for immunoblot analysis.
After mixed with gel-loading buffer and boiled for 5 minutes, the protein samples were separated with 10% SDS-PAGE and transferred to a PVDF membrane (Millipore, Billerica, Mass.). […] Gel density was quantified with Quantity One and expressed as a relative value against β-actin. […]

[2] = system: 3′ UTR of human ER-α gene; assay: Luciferase reporter assay, ER-α 3′ UTR let-7 binding site in pMIR-REPORT; type: cell-based; settings: MCF7 cells; for luciferase activity, ER-α binding site in 3′UTR of luciferase: 60 nmol/L mimics, vs negative control miRNA; for luciferase activity, mutated ER-α binding sequence: mutated sequence in 3′UTR of luciferase
Excerpt: Luciferase assay. A fragment of the 3′ UTR of human ER-α gene, which contains the putative let-7 target sites, was synthesized (IDT technology). With attached SpeI and HindIII restriction sites, the fragments are 48 by long. The sense strand was 5′-[…] (SEQ ID NO:39) while the antisense strand was 5′-[…] (SEQ ID NO:40). The cloning and transfection followed previous protocol (Hu et al., 2009, J Immunol 183:1617-24). Sixty nanomolar let-7 mimics, anti-let-7 inhibitors, pre-miR negative control #1 (AM17110, Ambion), or anti-miR negative control #1 (AM17010, Ambion) were transfected together with a 0.25 μg luciferase construct and a 0.25 μg β-galactosidase plasmid, which were used as a normalization reference. After 24 hour post-transfection, the luciferase activity was measured in a Veritas Microplate Luminometer (Turner Biosystems). Every treatment had 3 replicates. The luciferase activity was expressed as a fraction of negative control.

Row | Substance | expression of ER-α (protein) (ER-α; after 2 days) | expression of ER-α (protein) (ER-α; after 6 days) | expression of cyclin D1 (protein) (cyclin D1) | protein expression of cyclin D1 (cyclin D1) | estrogen induced activation of the ERK1/2 (nongenomic estrogen pathway) (ERK1/2) | cell growth (MTT) [1] | ER-α36 protein level (ER-α36) | luciferase activity, ER-α binding site in 3′UTR of luciferase [2] | luciferase activity, mutated ER-α binding sequence [2]
1 | let-7i: let-7i miRNA (mimic), 3′-UUGUCGUGUUUGAUGAUGGAGU-5′ (SEQ ID NO:14) (chemistry not given here; listed 3' to 5') | significantly depressed the expression of ER-α | dramatically down-regulated the expression of ER-α | significantly inhibited | modest effect | significantly inhibited | None of three miRNAs significantly inhibited cell growth | strongly inhibited; also recorded: inhibited | decreased the luciferase activity; also recorded: significantly inhibited the luciferase activity | abrogated the effects; also recorded: did not show inhibition
2 | let-7b: let-7b miRNA (mimic), 3′-UUGGUGUGUUGGAUGAUGGAGU-5′ (SEQ ID NO:8) (chemistry not given here; listed 3' to 5') | significantly depressed the expression of ER-α | dramatically down-regulated the expression of ER-α | significantly inhibited | significantly decreased | significantly inhibited | None of three miRNAs significantly inhibited cell growth | strongly inhibited; also recorded: inhibited | decreased the luciferase activity; also recorded: significantly inhibited the luciferase activity | abrogated the effects; also recorded: did not show inhibition
